The numbers were not newly measured in patent US20100215736A1, “ORAL DOSAGE FORM PROVIDING FAST ADSORPTION OF DRUG” (NOVARTIS AG, priority 2007, published 2010), which cites them from elsewhere.

Molecules are shown by their SMILES.

The conditions of the data set: in vivo.

As to `CC(C)Cc1ccc(C(C)C(=O)[O-])cc1.O.O.[Na+]` (stereo not shown) [ibuprofen sodium dihydrate salt], the tmax is 36 min.
